Reference: patent US9416128B2, “Fused heterocyclic compounds as ion channel modulators” (Gilead Sciences, Inc., priority 2013, dated 2016)
Like-named read-outs stand apart in the source and are kept apart here.

Tests used:
hNaV1.2 (SCN2A) = biological target: T1, hNaV1.2 (SCN2A) (Homo sapiens, UniProt Q99250); experiment: Use-dependent inhibition of the CNS NaV1.2 sodium channel; type: cell-based; settings: HEK-293, % inhibition, 25 Hz; for inhibition at 1 µM: use-dependent block at 1 uM, read-out: Nav1.2 UDB 25 Hz 1 uM; for inhibition at 10 µM: use-dependent block at 10 uM, read-out: Nav1.2 UDB 25 Hz 10 uM
T1 construct: expressed in transfected cells
Method: HEK-293 cells stably expressing wild-type (WT) hNaV1.2 (SCN2A NCBI # NM_021007.2, SCN1B NCBI # NM_001037.4, SCN2B NCBI # NM_004588.2) were used to record INa. Cells are maintained with standard tissue culture procedures and stable channel expression is maintained with 800 ug/mL G418 and 3 ug/mL Puromycin in the culture medium. Unless otherwise noted, all reagents are purchased from Sigma-Aldrich (St Louis, Mo., U.S.A.).
Assays measuring Use-Dependent Block (UDB) of NaV1.2 are performed on an automated electrophysiology platform, QPatch 16X or QPatch HT (Sophion Bioscience, Copenhagen, Denmark), using the whole cell patch clamp technique to measure currents through the cell membrane. Series resistance compensation is set to 100% and series resistance and whole-cell compensation are performed automatically. Currents stored in the Sophion Bioscience Oracle database (Sophion Bioscience, Copenhagen, Denmark). Analysis is performed using QPatch Assay software and data are compiled in Excel 2010 (Microsoft, Seattle, Wash., U.S.A.). The internal (pipette) solution consists of (in mM) 105 CsF, 10 NaF, 20 CsCl, 2 EGTA, 10 HEPES, 10 Dextrose with a pH of 7.35 and osmolarity of 300 mOsmol/kg. The external (bath) solution contains in (mM): 145 NaCl, 4 KCl, 1.8 CaCl2, 1 MgCl2, 10 dextrose, 10 HEPES, with a pH of 7.35 and osmolarity of 310 mOsmol/kg. Experiments are carried out at 23-25° C.
Compound stocks are routinely made by the Gilead Sample Bank in vials to 10 mM in dimethyl sulfoxide (DMSO). In some cases, when compounds are not soluble in DMSO, they are made in 100% ethanol. Stocks are sonicated as necessary. […]
Cells are allowed to stabilize for 10 min after establishment of the whole-cell configuration before current is measured. The test compound is applied 2 times at 60 second intervals. After the second compound addition, a 200 second wait period was imposed to allow for equilibration. Leak currents are subtracted by using an online P/4 procedure and all currents are low-pass Bessel filtered at 5 kHz and digitized at […].
Results are presented as mean percentage inhibition.
Use-dependent block of NaV1.2 peak current is measured during pulse number 20 of a voltage pulse train (0 mV, 20 ms, 20 pulses, 25 Hz) from a holding potential of −120 mV.
Currents are normalized to the peak current recorded in response to the first pulse in each frequency train. The voltage protocol for UDB was performed in the absence and presence of compound and percentage inhibition was calculated with respect to the compound free condition.
Data analysis is performed using QPatch Assay Software 4.0, and Excel 2002 (Microsoft, Seattle, Wash., U.S.A.).

[1] = biological target: wild-type human cardiac sodium channel, hNaV 1.5 (Peak INa) (Homo sapiens, UniProt Q14524); experiment: Peak INa screening assay (tonic block and use-dependent block); type: cell-based
Method: The assay uses an HEK293 (human embryonic kidney) cell line heterologously expressing the wild-type human cardiac sodium channel, hNaV 1.5, purchased from Millipore (Billerica, Mass.). No beta subunits were coexpressed with the Na channel alpha subunit. Cells are maintained with standard tissue culture procedures and stable channel expression is maintained with 400 μg/mL Geneticin in the culture medium. […] Currents are digitized at 25 kHz and low-pass filtered at 5 kHz and stored in the Sophion Bioscience Oracle database (Sophion Bioscience, Copenhagen, Denmark). Analysis is performed using QPatch Assay software and data are compiled in Excel 2010 (Microsoft, Seattle, Wash., U.S.A.). Compound stocks are routinely made by the Gilead Sample Bank in vials to 10 mM in dimethyl sulfoxide (DMSO). In some cases, when compounds are not soluble in DMSO, they are made in 100% ethanol. Stocks are sonicated as necessary. The extracellular solution for screening Late INa is composed of: 140 mM NaCl, 4 mM KCl, 1.8 mM CaCl2, 1 mM MgCl2, 10 mM HEPES and 10 mM Dextrose with pH adjusted to 7.35 using NaOH. The intracellular solution contains: 105 mM CsF, 20 mM CsCl, 10 NaF, 2 mM EGTA, 10 mM HEPES and 10 mM Dextrose with pH adjusted to 7.35 with CsOH. Compounds are diluted in extracellular solution using a MicroLab Nimbus (Hamilton Robotics, Reno, Nev.) to between 0.3 and 3 μM in glass vials and transferred to glass well plates before robotic addition to the cells. […] It is contemplated that the compounds of Formula I avoid significant block of peak INa. […] The intracellular solution used for the Peak INa assay is the same as outlined for the Late INa assay (see above). After establishing the whole cell recording configuration, channels were stimulated to open with low frequency (0.1 Hz) for so that the recording can be monitored and the extent to which the recording has stabilized can be assessed. The test compound is then applied at 1 or 3 μM was added 2 times at 60 second intervals. After the second compound addition, a 200 second wait period was imposed to allow for equilibration. Voltage protocols for TB and UDB are were performed in the absence and presence of compound and TB and UDB are calculated with respect to the compound free condition. Both TB and UDB were analyzed by incorporating rundown correction for the peak INa.

[2] = % inhibition, use-dependent block of peak INa at 3 uM, 3 Hz, pulse 50, read-out: Nav1.5 Peak UDB 3 Hz 3 uM
[3] = read-out: Nav1.5 Peak TB 3 uM, % inhibition, tonic block of peak INa at 3 uM, 0.1 Hz, holding -100 mV

T1 sequence (Q99250 whole entry): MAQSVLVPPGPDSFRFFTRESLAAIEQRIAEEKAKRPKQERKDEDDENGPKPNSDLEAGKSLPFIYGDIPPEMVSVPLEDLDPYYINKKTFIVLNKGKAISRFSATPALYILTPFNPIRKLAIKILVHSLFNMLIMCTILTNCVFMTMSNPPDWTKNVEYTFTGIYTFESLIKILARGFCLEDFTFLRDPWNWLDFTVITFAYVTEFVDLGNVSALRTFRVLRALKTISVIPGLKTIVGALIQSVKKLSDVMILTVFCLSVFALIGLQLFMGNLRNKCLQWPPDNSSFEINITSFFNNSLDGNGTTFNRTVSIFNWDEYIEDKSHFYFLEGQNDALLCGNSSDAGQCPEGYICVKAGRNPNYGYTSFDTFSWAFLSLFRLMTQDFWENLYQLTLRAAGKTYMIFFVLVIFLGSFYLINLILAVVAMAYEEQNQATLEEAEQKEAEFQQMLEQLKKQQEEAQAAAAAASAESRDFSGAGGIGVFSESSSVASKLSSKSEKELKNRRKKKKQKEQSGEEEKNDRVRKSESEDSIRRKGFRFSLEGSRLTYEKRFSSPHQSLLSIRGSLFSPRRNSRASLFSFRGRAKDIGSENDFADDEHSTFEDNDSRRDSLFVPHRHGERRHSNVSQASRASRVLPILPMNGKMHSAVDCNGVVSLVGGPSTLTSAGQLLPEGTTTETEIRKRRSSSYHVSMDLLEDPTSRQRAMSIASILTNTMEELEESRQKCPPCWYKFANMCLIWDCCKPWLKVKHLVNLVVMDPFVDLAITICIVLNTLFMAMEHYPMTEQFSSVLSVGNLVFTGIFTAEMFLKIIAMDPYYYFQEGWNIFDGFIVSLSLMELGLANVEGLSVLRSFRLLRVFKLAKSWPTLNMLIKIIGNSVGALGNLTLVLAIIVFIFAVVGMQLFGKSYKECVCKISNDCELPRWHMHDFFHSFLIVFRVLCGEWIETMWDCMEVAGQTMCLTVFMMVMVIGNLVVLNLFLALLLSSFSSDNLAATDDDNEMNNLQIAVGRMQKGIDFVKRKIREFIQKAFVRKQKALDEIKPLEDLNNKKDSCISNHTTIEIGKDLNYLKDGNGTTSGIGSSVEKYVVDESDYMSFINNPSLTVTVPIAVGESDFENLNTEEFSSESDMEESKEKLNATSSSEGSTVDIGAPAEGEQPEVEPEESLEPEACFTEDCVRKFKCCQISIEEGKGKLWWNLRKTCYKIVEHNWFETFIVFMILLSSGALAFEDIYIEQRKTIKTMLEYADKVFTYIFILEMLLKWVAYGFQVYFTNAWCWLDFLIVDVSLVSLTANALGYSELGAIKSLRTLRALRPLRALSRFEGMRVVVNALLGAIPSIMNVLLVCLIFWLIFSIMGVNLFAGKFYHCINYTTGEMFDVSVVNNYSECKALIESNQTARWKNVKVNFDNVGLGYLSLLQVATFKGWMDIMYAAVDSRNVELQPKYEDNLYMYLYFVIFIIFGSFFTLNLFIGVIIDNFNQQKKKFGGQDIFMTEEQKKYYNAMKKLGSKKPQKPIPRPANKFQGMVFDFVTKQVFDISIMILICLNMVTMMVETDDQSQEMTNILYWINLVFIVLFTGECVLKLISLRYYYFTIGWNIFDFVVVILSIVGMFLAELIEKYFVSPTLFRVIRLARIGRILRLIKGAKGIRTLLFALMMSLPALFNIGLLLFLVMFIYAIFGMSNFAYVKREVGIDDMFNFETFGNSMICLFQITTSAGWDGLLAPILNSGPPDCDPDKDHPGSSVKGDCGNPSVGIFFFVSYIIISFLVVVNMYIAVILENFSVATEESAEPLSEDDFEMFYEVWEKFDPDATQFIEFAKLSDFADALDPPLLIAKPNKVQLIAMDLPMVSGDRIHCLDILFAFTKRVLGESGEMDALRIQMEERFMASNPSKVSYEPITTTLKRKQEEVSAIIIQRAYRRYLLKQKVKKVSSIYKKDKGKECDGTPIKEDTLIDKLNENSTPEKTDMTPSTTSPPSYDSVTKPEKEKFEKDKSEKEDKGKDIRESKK
T1 sequence (Q07699 19-218 partner): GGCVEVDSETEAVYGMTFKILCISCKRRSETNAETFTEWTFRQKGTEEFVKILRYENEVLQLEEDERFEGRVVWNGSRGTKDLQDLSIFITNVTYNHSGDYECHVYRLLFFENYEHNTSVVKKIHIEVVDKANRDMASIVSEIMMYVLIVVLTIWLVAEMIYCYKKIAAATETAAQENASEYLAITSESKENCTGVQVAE
T1 sequence (O60939 30-215 partner): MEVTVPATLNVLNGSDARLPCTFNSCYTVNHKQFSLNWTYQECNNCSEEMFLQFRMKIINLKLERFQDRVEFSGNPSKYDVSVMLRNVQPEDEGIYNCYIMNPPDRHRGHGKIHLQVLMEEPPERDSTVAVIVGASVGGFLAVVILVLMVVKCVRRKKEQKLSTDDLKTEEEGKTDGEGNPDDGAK
Sequence of wild-type human cardiac sodium channel, hNaV 1.5 (Peak INa) (Q14524 whole entry): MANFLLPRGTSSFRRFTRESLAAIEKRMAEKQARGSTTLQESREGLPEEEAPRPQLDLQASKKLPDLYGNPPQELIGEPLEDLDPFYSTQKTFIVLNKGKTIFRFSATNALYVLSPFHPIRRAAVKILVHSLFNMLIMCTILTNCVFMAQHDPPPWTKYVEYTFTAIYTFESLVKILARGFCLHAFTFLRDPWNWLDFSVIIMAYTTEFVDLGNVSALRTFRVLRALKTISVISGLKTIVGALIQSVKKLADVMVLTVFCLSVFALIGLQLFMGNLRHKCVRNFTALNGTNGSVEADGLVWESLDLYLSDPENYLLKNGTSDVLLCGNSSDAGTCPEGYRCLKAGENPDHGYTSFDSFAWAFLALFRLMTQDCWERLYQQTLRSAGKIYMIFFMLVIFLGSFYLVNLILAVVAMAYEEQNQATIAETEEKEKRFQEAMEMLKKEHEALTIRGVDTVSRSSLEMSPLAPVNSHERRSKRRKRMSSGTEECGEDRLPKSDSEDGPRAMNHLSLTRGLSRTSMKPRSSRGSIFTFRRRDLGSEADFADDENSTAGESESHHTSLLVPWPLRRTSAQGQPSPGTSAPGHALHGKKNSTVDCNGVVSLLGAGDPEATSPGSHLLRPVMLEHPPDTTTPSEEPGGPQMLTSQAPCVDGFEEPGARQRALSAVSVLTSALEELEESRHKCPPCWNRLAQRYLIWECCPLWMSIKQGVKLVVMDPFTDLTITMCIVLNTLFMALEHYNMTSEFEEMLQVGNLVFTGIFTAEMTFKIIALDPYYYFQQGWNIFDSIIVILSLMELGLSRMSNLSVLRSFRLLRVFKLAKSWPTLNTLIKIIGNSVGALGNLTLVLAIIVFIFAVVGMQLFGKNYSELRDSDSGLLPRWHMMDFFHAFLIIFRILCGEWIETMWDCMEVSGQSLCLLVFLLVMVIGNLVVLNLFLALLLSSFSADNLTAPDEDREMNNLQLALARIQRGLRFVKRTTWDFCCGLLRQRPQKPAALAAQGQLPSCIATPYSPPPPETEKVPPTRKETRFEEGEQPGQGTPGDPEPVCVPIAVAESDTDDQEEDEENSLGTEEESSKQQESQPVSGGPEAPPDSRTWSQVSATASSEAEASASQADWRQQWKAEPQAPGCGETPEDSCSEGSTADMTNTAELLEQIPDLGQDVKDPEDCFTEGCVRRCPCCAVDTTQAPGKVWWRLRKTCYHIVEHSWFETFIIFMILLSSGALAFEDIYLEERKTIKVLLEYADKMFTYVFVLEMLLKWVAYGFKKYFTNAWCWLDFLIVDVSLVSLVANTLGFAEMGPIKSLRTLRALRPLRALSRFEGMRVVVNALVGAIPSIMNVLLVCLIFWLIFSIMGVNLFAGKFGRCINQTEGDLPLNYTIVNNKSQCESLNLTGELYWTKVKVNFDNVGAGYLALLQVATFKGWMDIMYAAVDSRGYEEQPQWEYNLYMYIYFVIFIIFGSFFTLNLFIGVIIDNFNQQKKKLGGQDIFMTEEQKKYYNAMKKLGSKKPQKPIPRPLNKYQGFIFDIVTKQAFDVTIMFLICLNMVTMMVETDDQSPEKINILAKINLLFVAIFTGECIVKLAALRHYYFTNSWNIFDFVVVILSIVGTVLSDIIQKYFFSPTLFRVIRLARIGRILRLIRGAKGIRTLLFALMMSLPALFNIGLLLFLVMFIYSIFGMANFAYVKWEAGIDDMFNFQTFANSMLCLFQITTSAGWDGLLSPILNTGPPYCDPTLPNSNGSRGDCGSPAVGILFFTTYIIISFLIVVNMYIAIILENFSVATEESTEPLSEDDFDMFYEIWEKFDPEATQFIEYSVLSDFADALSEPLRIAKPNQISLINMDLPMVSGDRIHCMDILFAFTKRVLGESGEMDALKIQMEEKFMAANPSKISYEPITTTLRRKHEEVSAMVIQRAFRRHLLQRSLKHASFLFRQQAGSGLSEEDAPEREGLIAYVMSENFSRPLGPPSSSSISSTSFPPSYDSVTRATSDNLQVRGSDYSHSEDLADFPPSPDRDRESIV

| Structure (SMILES) | inhibition at 1 µM (hNaV1.2 (SCN2A)) [%] | inhibition at 10 µM (hNaV1.2 (SCN2A)) [%] | inhibition at 3 µM [1, 2] [%] | inhibition at 3 µM [1, 3] [%] |
| --- | --- | --- | --- | --- |
| O=C1Oc2ccc(-c3ccc(OC(F)(F)F)c(F)c3)cc2CN1Cc1ncccn1 [Example 10, 6-(3-fluoro-4-(trifluoromethoxy)phenyl)-3-(pyrimidin-2-ylmethyl)-3,4-dihydro-2H-benzo[e][1,3]oxazin-2-one] | 30.2 | 75 | 10.8 | 14.2 |
| COc1cc(C(F)(F)F)ccc1-c1ccc2c(c1)CN(Cc1ncc(C)cn1)C(=O)O2 [Example 42, 6-(2-methoxy-4-(trifluoromethyl)phenyl)-3-((5-methylpyrimidin-2-yl)methyl)-3,4-dihydro-2H-benzo[e][1,3]oxazin-2-one] | 13.3 | 47.4 | < 5 | 12.7 |
| Cc1ccnc(CN2Cc3cc(-c4ccc(OC(F)(F)F)cc4C)ccc3OC2=O)n1 [Example 33, 6-(2-methyl-4-(trifluoromethoxy)phenyl)-3-((4-methylpyrimidin-2-yl)methyl)-3,4-dihydro-2H-benzo[e][1,3]oxazin-2-one] | 17.2 | 55.2 | < 5 | 27.8 |
| CCCOc1cc(C(F)(F)F)ccc1-c1ccc2c(c1)CN(CCc1ncccn1)C(=O)O2 [Example 19, 6-(2-propoxy-4-(trifluoromethyl)phenyl)-3-(2-(pyrimidin-2-yl)ethyl)-3,4-dihydro-2H-benzo[e][1,3]oxazin-2-one] | 30.6 | 64 | 9.6 | 26.7 |
| Cc1csc(CN2Cc3cc(-c4ccc(OC(F)(F)F)c(F)c4)ccc3OC2=O)n1 [Example 53, 6-(3-fluoro-4-(trifluoromethoxy)phenyl)-3-((4-methylthiazol-2-yl)methyl)-3,4-dihydro-2H-benzo[e][1,3]oxazin-2-one] | 32.3 | 73.6 | < 5 | 19.8 |
| Cc1cnc(CN2Cc3cc(-c4ccc(C(F)(F)F)cc4C)ccc3OC2=O)nc1 [Example 43, 6-(2-methyl-4-(trifluoromethyl)phenyl)-3-((5-methylpyrimidin-2-yl)methyl)-3,4-dihydro-2H-benzo[e][1,3]oxazin-2-one] | < 5 | 48.9 | < 5 | 19.2 |
| Cc1ccnc(CN2Cc3cc(-c4ccc(OC(F)(F)F)cc4F)ccc3OC2=O)n1 [Example 32, 6-(2-fluoro-4-(trifluoromethoxy)phenyl)-3-((4-methylpyrimidin-2-yl)methyl)-3,4-dihydro-2H-benzo[e][1,3]oxazin-2-one] | 8.1 | 41 | < 5 | 33.1 |
| Cc1cc(OC(F)(F)F)ccc1-c1ccc2c(c1)CN(Cc1ncccn1)C(=O)O2 [Example 8, 6-(2-methyl-4-(trifluoromethoxy)phenyl)-3-(pyrimidin-2-ylmethyl)-3,4-dihydro-2H-benzo[e][1,3]oxazin-2-one] | < 5 | 11 | < 5 | 12.5 |
| COc1cc(OC(F)(F)F)ccc1-c1ccc2c(c1)CN(Cc1ccccn1)C(=O)O2 [Example 22, 6-(2-methoxy-4-(trifluoromethoxy)phenyl)-3-(pyridin-2-ylmethyl)-3,4-dihydro-2H-benzo[e][1,3]oxazin-2-one] | < 5 | 55.6 | < 5 | 24.9 |
| O=C1Oc2ccc(-c3ccc(OC(F)(F)F)cc3)cc2CN1CCc1ncccn1 [Example 16, 3-(2-(pyrimidin-2-yl)ethyl)-6-(4-(trifluoromethoxy)phenyl)-3,4-dihydro-2H-benzo[e][1,3]oxazin-2-one] | 23.4 | 52.9 | 5.3 | 22.1 |
| Cc1csc(CN2Cc3cc(-c4ccc(OC(F)(F)F)c(C)c4)ccc3OC2=O)n1 [Example 54, 6-(3-methyl-4-(trifluoromethoxy)phenyl)-3-((4-methylthiazol-2-yl)methyl)-3,4-dihydro-2H-benzo[e][1,3]oxazin-2-one] | 6.1 | 43.5 | < 5 | 11.2 |
| Cc1ccnc(CN2Cc3cc(-c4ccc(C(F)(F)F)cc4)ccc3OC2=O)n1 [Example 30, 3-((4-methylpyrimidin-2-yl)methyl)-6-(4-(trifluoromethyl)phenyl)-3,4-dihydro-2H-benzo[e][1,3]oxazin-2-one] | 47.1 | 79.6 | 13.2 | 36.5 |
| Cc1cc(-c2ccc3c(c2)CN(Cc2ncccn2)C(=O)O3)ccc1OC(F)(F)F [Example 5, 6-(3-methyl-4-(trifluoromethoxy)phenyl)-3-(pyrimidin-2-ylmethyl)-3,4-dihydro-2H-benzo[e][1,3]oxazin-2-one] | < 5 | 24.9 | < 5 | 10.1 |
| CC(C)Oc1cc(OC(F)(F)F)ccc1-c1ccc2c(c1)CN(Cc1ncccn1)C(=O)O2 [Example 39, 6-(2-isopropoxy-4-(trifluoromethoxy)phenyl)-3-(pyrimidin-2-ylmethyl)-3,4-dihydro-2H-benzo[e][1,3]oxazin-2-one] | 16 | 59.3 | 5.9 | 17.5 |
| O=C1Oc2ccc(-c3ccc(Cl)c(F)c3)cc2CN1Cc1ncccn1 [Example 6, 6-(4-chloro-3-fluorophenyl)-3-(pyrimidin-2-ylmethyl)-3,4-dihydro-2H-benzo[e][1,3]oxazin-2-one] |  |  | < 5 | 19.9 |
| CC1c2cc(-c3ccc(OC(F)(F)F)cc3)ccc2OC(=O)N1Cc1ncccn1 (stereo not shown) [Example 48, 4-methyl-3-(pyrimidin-2-ylmethyl)-6-(4-(trifluoromethoxy)phenyl)-3,4-dihydro-2H-benzo[e][1,3]oxazin-2-one] |  |  |  | 12.1 |
| CC1c2cc(-c3cccc(OC(F)(F)F)c3)ccc2OC(=O)N1Cc1ncccn1 (stereo not shown) [Example 50, 4-methyl-3-(pyrimidin-2-ylmethyl)-6-(3-(trifluoromethoxy)phenyl)-3,4-dihydro-2H-benzo[e][1,3]oxazin-2-one] |  |  | 12.1 | 17.7 |
